Source: patent US6953789B2, “Thiol compounds, their production and use” (Takeda Chemical Industries, Ltd., priority 1998, dated 2005)

biological target: T1, recombinant human MMP-13 (Homo sapiens, UniProt P45452); test: Assay of MMP-13 inhibiting activity (fluorogenic peptide substrate); assay type: biochemical; details: Table 3; 37° C., 2 hours
T1 construct: made in house; host or cells: baculovirus (pBlueBac4 / Bac-N-Blue; virus made in Sf9), expressed in High-Five insect cells; culture supernatant used
Source text: Based on the sequence described in the literature by Freije, J. M. et al (Journal of Biological Chemistry, 269: 16766-16773, 1994) and using a PCR method known per se, a human MMP-13 cDNA was obtained.
A pBlueBac4 (Invitrogen) and a Baculovirus vector Bac-N-Blue (Invitrogen) to each of which the human MMP-13 cDNA obtained above was integrated were co-transfected to an Sf9 cell to obtain a MMP-13-expressing recombinant virus.
The recombinant virus thus obtained was infected to a High-Five cell (Invitrogen), and the culture supernatant after three days was employed as an enzyme solution. Experiment 2 Assay of MMP-13 inhibiting activity
75 μl of a sample containing the recombinant human MMP-13, 200 mM sodium chloride, 20 mM calcium chloride, 0.1% Brij 35, 1 mM 2-mercaptoethanol, 200 mM tris-HCl buffer solution (pH7.5) and a test substance at various concentrations was treated with 25 μl of 40 μM MOCAc-Pro-Leu-Gly-Leu-A2pr(DNP)-Ala-Arg-NH2 (PEPTIDE KENKYUSHO) to initiate a reaction and kept at 37° C. for 2 hours, and then 100 μl of 500 mM sodium acetate-HCl buffer solution (pH3.0) was added to terminate the reaction.
The level of liberated MOCAc-Pro-Leu-Gly was determined using a fluorophotometer (MTP-32/F2: CORONA DENKI) at the excitation wavelength of 330 nm and the fluorescent wavelength of 405 nm. The fluorescent level of the reaction in the absence of a test substance was regarded as 100%, and the concentration of each test substance required for achieving 50% inhibition was indicated as IC50.

O=C(O)CC(=O)S[C@@H]1CC(=O)N(Cc2ccc(Oc3ccccc3)cc2)C1 [Example 73, 3-Oxo-3-{[(3R)-5-oxo-1-(4-phenoxybenzyl)pyrrolidinyl]sulfanyl}propanoic acid] and O=C(O)CCC(=O)S[C@@H]1CC(=O)N(Cc2ccc(Oc3ccccc3)cc2)C1 [Example 75, 4-Oxo-4-{[(3R)-5-oxo-1-(4-phenoxybenzyl)pyrrolidinyl]sulfanyl}butanoic acid] are within 1.5-fold of each other in IC50: 11 nM for the first, 8 nM for the second.

Compared with CCOC(=O)CCC(=O)S[C@@H]1CC(=O)N(Cc2ccc(Oc3ccccc3)cc2)C1 [Example 74, Ethyl 4-oxo-4-{[(3R)-5-oxo-1-(4-phenoxybenzyl)pyrrolidinyl]sulfanyl}butanoate], CCOC(=O)CCS[C@@H]1CC(=O)N(Cc2ccc(Oc3ccccc3)cc2)C1 [Example 92, Ethyl 3-{[(3R)-5-oxo-1-(4-phenoxybenzyl)pyrrolidinyl]sulfanyl}propanoate] is 370-fold higher in IC50: 5.4 nM for the first, 2000 nM for the second. The first is the more potent here.

CNC(=S)S[C@@H]1CC(=O)N(Cc2ccc(Oc3ccccc3)cc2)C1 [Example 76] and CCNC(=S)S[C@@H]1CC(=O)N(Cc2ccc(Oc3ccccc3)cc2)C1 [Example 77] are within 1.5-fold of each other in IC50: 1.2 nM for the first, 1.6 nM for the second.

Going from COC(=O)SS[C@@H]1CC(=O)N(Cc2ccc(Oc3ccccc3)cc2)C1 [Example 78, (4R)-4-[(Methoxycarbonyl)disulfanyl]-2-oxo-1-(4-phenoxybenzyl)pyrrolidine] to CCSS[C@@H]1CC(=O)N(Cc2ccc(Oc3ccccc3)cc2)C1 [Example 79, (4R)-4-(Ethyldisulfanyl)-1-(4-phenoxybenzyl)-2-pyrrolidinone], the IC50 falls from greater than 10000 nM to 100 nM. The second is the more potent here.

First: CCCCCCSS[C@@H]1CC(=O)N(Cc2ccc(Oc3ccccc3)cc2)C1 [Example 80, (4R)-4-(Hexyldisulfanyl)-1-(4-phenoxybenzyl)-2-pyrrolidinone]
Second: O=C(O)CCSS[C@@H]1CC(=O)N(Cc2ccc(Oc3ccccc3)cc2)C1 [Example 85]
The IC50 of the first is 2.2-fold higher: 1000 nM for the first, 460 nM for the second.

CC(C)(C)SS[C@@H]1CC(=O)N(Cc2ccc(Oc3ccccc3)cc2)C1 [Example 81, (4R)-4-(t-Butyldisulfanyl)-1-(4-phenoxybenzyl)-2-pyrrolidinone] and CS[C@@H]1CC(=O)N(Cc2ccc(Oc3ccccc3)cc2)C1 [Example 89, (4R)-4-(Methylsulfanyl)-1-(4-phenoxybenzyl)-2-pyrrolidinone] are within 1.5-fold of each other in IC50: 1000 nM for the first, 700 nM for the second.

First: CCOC(=O)CSS[C@@H]1CC(=O)N(Cc2ccc(Oc3ccccc3)cc2)C1 [Example 82]
Second: O=C(O)CSS[C@@H]1CC(=O)N(Cc2ccc(Oc3ccccc3)cc2)C1 [Example 83]
The IC50 of the first is 8-fold lower: 50 nM for the first, 400 nM for the second. The first is the more potent here.

O=C(O)c1ccccc1SS[C@@H]1CC(=O)N(Cc2ccc(Oc3ccccc3)cc2)C1 [Example 86] and O=C1C[C@@H](SSc2ccccc2[N+](=O)[O-])CN1Cc1ccc(Oc2ccccc2)cc1 [Example 87, (4R)-4-[(2-Nitrophenyl)disulfanyl)-1-(4-phenoxybenzyl)-2-pyrrolidinone] are within 1.5-fold of each other in IC50: 500 nM for the first, 600 nM for the second.

First: C/C(=C(\CCO)SS[C@@H]1CC(=O)N(Cc2ccc(Oc3ccccc3)cc2)C1)N(C=O)Cc1cnc(C)nc1N [Example 88, (4-Amino-2-methyl-5-pyrimidinyl)methyl((Z)-4-hydroxy-1-methyl-2-{[(3R)-5-oxo-1-(4-phenoxybenzyl)pyrrolidinyl]disulfanyl}-1-butenyl)formamide]
Second: O=C1C[C@@H](SCCO)CN1Cc1ccc(Oc2ccccc2)cc1 [Example 90, (4R)-4-[(2-Hydroxyethyl)sulfanyl)-1-(4-phenoxybenzyl)-2-pyrrolidinone]
The IC50 of the first is 7.5-fold lower: 670 nM for the first, 5000 nM for the second. The first is the more potent here.

Compared with O=C(O)CS[C@@H]1CC(=O)N(Cc2ccc(Oc3ccccc3)cc2)C1 [Example 91, 2-{[(3R)-5-Oxo-1-(4-phenoxybenzyl)pyrrolidinyl]sulfanyl}acetic acid], O=C(O)CCS[C@@H]1CC(=O)N(Cc2ccc(Oc3ccccc3)cc2)C1 [Example 93, 3-{[(3R)-5-Oxo-1-(4-phenoxybenzyl)pyrrolidinyl]sulfanyl}propanoic acid] is 6-fold higher in IC50: 1000 nM for the first, 6000 nM for the second.

Compared with O=C1CC(SCc2ccc(Br)cc2)CN1Cc1ccc(Oc2ccccc2)cc1 (stereo not drawn) [Example 94, 4-[(4-Bromobenzyl)sulfanyl)-1-(4-phenoxybenzyl)-2-pyrrolidinone], O=C(O)c1ccc(CS[C@@H]2CC(=O)N(Cc3ccc(Oc4ccccc4)cc3)C2)cc1 [Example 96, 4-({[(3R)-5-oxo-1-(4-phenoxybenzyl)pyrrolidinyl]sulfanyl}methyl)benzoic acid] is 2.3-fold higher in IC50: 300 nM for the first, 700 nM for the second.

Going from COC(=O)c1ccc(CS[C@@H]2CC(=O)N(Cc3ccc(Oc4ccccc4)cc3)C2)cc1 [Example 95, Methyl 4-({[(3R)-5-oxo-1-(4-phenoxybenzyl)pyrrolidinyl]sulfanyl}methyl)benzoate] to O=C(NCS[C@@H]1CC(=O)N(Cc2ccc(Oc3ccccc3)cc2)C1)c1ccccc1 [Example 102, N-({[(3R)-5-oxo-1-(4-phenoxybenzyl)pyrrolidinyl]sulfanyl}methyl)benzamide], the IC50 falls from 400 nM to 100 nM (4-fold).

First: O=C1CC(SCCS(=O)(=O)c2ccccc2)CN1Cc1ccc(Oc2ccccc2)cc1 (stereo not drawn) [Example 97, 1-(4-phenoxybenzyl)-4-{[2-(phenylsulfonyl)ethyl]sulfanyl}-2-pyrrolidinone]
Second: O=C1C[C@@H](SCN2C(=O)c3ccccc3C2=O)CN1Cc1ccc(Oc2ccccc2)cc1 [Example 104, 2-({[(3R)-5-oxo-1-(4-phenoxybenzyl)pyrrolidinyl]sulfanyl}methyl)-1H-isoindole-1,3-(2H)-dione]
The IC50 of the first is 10-fold higher: 2000 nM for the first, 200 nM for the second.

First: COCS[C@@H]1CC(=O)N(Cc2ccc(Oc3ccccc3)cc2)C1 [Example 98, (4R)-4-[(Methoxymethyl)sulfanyl]-1-(4-phenoxybenzyl)-2-pyrrolidinone]
Second: CC(=O)NCS[C@@H]1CC(=O)N(Cc2ccc(Oc3ccccc3)cc2)C1 [Example 100, N-({[(3R)-5-Oxo-1-(4-phenoxybenzyl)pyrrolidinyl]sulfanyl}methyl)acetamide]
The IC50 of the first is 10-fold lower: 200 nM for the first, 2000 nM for the second. The first is the more potent here.

Going from O=C1OC(S[C@@H]2CC(=O)N(Cc3ccc(Oc4ccccc4)cc3)C2)c2ccccc21 (stereo partly drawn) [Example 99, (4R)-4-[(3-Oxo-1,3-dihydro-2-benzofuran-1-yl)sulfanyl]-1-(4-phenoxybenzyl)-2-pyrrolidinone] to O=C1CC(S[C@@H]2CC(=O)N(Cc3ccc(Oc4ccccc4)cc3)C2)C(=O)N1 (stereo partly drawn) [Example 105, 3-{[(3R)-5-Oxo-1-(4-phenoxybenzyl)pyrrolidinyl]sulfanyl}-2,5-pyrrolidinedione], the IC50 rises from 7 nM to 40 nM (5.7-fold).

Going from CC(C)(C)C(=O)NCS[C@@H]1CC(=O)N(Cc2ccc(Oc3ccccc3)cc2)C1 [Example 101, 2,2-Dimethyl-N-({[(3R)-5-oxo-1-(4-phenoxybenzyl)pyrrolidinyl]sulfanyl}methyl)propanamide] to CCOC(=O)NCS[C@@H]1CC(=O)N(Cc2ccc(Oc3ccccc3)cc2)C1 [Example 103, Ethyl {[(3R)-5-oxo-1-(4-phenoxybenzyl)pyrrolidinyl]sulfanyl}methylcarbamate], the IC50 falls from 3000 nM to 300 nM (10-fold).

Compared with CN1C(=O)CC(S[C@@H]2CC(=O)N(Cc3ccc(Oc4ccccc4)cc3)C2)C1=O (stereo partly drawn) [Example 106, 1-Methyl-3-{[(3R)-5-oxo-1-(4-phenoxybenzyl)pyrrolidinyl]sulfanyl}-2,5-pyrrolidinedione], CCOC(=O)S[C@@H]1CC(=O)N(Cc2ccc(Oc3ccccc3)cc2)C1 [Example 107, O-Ethyl S-[(3R)-5-oxo-1-(4-phenoxybenzyl)pyrrolidinyl]carbanothioate] is 1.5-fold higher in IC50: 20 nM for the first, 30 nM for the second.

same assay, conditions: Table 9; 37° C., 2 hours

O=C1CC(S)CN1Cc1ccc(Oc2ccccc2F)cc1 (stereo not drawn) [Example 113, 4-Mercapto-1-[4-(2′-fluorophenoxy)benzyl]pyrrolidin-2-one] and O=C1CC(S)CN1Cc1ccc(Oc2cccc(F)c2)cc1 (stereo not drawn) [Example 115, 4-Mercapto-1-[4-(3′-fluorophenoxy)benzyl]pyrrolidin-2-one] are the same in IC50: 4 nM for the first, 4 nM for the second.

Compared with CC(=O)SC1CC(=O)N(Cc2ccc(Oc3cccc(F)c3)cc2)C1 (stereo not drawn) [Example 114, 4-Acetylthio-1-[4-(3′-fluorophenoxy)benzyl]pyrrolidin-2-one], CC(=O)S[C@H]1CC(=O)N(Cc2ccc(Oc3ccc(F)cc3)cc2)C1 [Example 116, (S)-4-Acethylthio-1-[4-(4′-fluorophenoxy)benzyl)pyrrolidin-2-one] is 700-fold higher in IC50: 10 nM for the first, 7000 nM for the second.

In the case of CC(=O)S[C@@H]1CC(=O)N(Cc2ccc(Oc3ccc(F)cc3)cc2)C1 [Example 117, (R)-4-Acethylthio-1-[4-(4′-fluorophenoxy)benzyl]pyrrolidin-2-one], the IC50 is reported as 7 nM.

same assay, conditions: Table 12; 37° C., 2 hours

First: CC(=O)SC1CCC(=O)N(Cc2ccc(Oc3ccccc3)cc2)C1 (stereo not drawn) [Example 108, S-[6-Oxo-1-(4-phenoxybenzyl)-3-piperidinyl]ethanethioate]
Second: O=C1CCC(S)CN1Cc1ccc(Oc2ccccc2)cc1 (stereo not drawn) [Example 109, 1-(4-Phenoxybenzyl)-5-sulfanyl-2-piperidinone]
The IC50 of the first is 5-fold higher: 300 nM for the first, 60 nM for the second. The second is the more potent here.

O=C1CC(S)CCN1Cc1ccc(Oc2ccccc2)cc1 (stereo not drawn) [Example 111, 1-(4-Phenoxybenzyl)-4-sulfanyl-2-piperidinone] showed an IC50 of 17 nM.
